Measurements published in publication PMC9250534, “Synthesis and direct assay of large macrocycle diversities by combinatorial late-stage modification at picomole scale” (Nature Communications, 2022).

Target: MDM2 (Homo sapiens, UniProt Q00987)
Experiment: MDM2 binding screen of Libraries 3 and 4: displacement of fluorescent probe F-M8 at 750 nM macrocycle
Summary of the method: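 Cyclic peptide scaffolds were acylated in DMSO with carboxylic acids (20 equiv.), HBTU and DABCO for 6 h at room temperature. Reactions were quenched overnight in 100 mM Tris-Cl pH 7.4, 0.01% Tween20. The fluorescein conjugate was also competed with nutlin-3a.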

[1] = Panel b, Library 3: 63 scaffolds combinatorially acylated with 15 carboxylic acids at 30 picomole scale, displacement of fluorescent peptide probe, macrocycle 750 nM
[2] = Panel c, Library 4: best nine scaffolds and 15 additional carboxylic acids, displacement of fluorescent probe

Sequence of MDM2 (Q00987 whole entry): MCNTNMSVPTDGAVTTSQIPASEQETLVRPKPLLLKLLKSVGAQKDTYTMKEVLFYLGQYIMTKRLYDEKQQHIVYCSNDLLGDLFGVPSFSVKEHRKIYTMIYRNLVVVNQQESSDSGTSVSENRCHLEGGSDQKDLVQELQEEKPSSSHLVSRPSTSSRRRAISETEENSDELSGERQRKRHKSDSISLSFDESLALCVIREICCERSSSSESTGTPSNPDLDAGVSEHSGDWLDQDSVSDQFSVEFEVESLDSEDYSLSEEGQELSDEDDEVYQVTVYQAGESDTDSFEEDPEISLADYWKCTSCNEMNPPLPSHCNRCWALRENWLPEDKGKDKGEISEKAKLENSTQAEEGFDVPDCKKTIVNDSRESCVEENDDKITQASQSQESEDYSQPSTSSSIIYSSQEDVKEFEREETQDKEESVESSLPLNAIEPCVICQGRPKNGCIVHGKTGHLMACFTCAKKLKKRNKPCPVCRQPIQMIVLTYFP

SMILES	fraction of fluorescent probe displaced [1]	fraction of fluorescent probe displaced [2]
O=C(/C=C/c1ccncc1)NC[C@H]1NC(=O)C2(CC2)CNC(=O)CCSSCCNC(=O)[C@H](Cc2c[nH]c3cc(Cl)ccc23)NC1=O [X-Amcp-D-Dap-Cl-Trp + Acid 106]	0.018	
O=C(NC[C@H]1NC(=O)[C@@H]2CN(CCO2)C(=O)CCSSCCNC(=O)[C@H](Cc2c[nH]c3cc(Cl)ccc23)NC1=O)c1ccc(Cl)s1 [X-Cop-D-Dap-Cl-Trp + Acid 14]	-0.00533	
Cn1cc(C[C@@H]2NC(=O)[C@H](CNC(=O)c3cnc4ccccc4n3)NC(=O)[C@H]3CCCN(C3)C(=O)CCSSCCNC2=O)c2ccccc21 [X-Nip-Dap-Me-Trp + Acid 130]		-0.00464
O=C(CCS(=O)(=O)c1ccccc1)NC[C@@H]1NC(=O)[C@@H]2CN(CCO2)C(=O)CCSSCCNC(=O)[C@H](Cc2ccc3ccccc3c2)NC1=O [X-Cop-Dap-2-Nal + Acid 114]	-0.00533	
O=C(C=Cc1ccc(Cl)cc1)NCC1NC(=O)C2CN(CCO2)C(=O)CCSSCCNC(=O)C(Cc2c[nH]c3ccccc23)NC1=O [X-Cop-D-Dap-Trp + Acid 108]	0.021	
O=C(/C=C/c1ccc(Cl)cc1)NCCN1CC(=O)N[C@H](Cc2c[nH]c3ccccc23)C(=O)NCCSSCCC(=O)NCC2(CC2)C1=O [X-Amcp-N-Aeg-D-Trp + Acid 108]	0.035	
CN1C(=O)C(CNC(=O)c2cccc(Oc3ccccc3)c2)NC(=O)C2CN(CCO2)C(=O)CCSSCCNC(=O)C1Cc1c[nH]c2ccccc12 [X-Cop-D-Dap-NMe-Trp + Acid 111]	0.00133	
O=C1CCSSCCNC(=O)[C@@H](Cc2c[nH]c3ccccc23)NC(=O)[C@H](CNC(=O)C2CC2c2ccccc2)NC(=O)C2(CC2)CN1 (stereo partly drawn) [X-Amcp-Dap-D-Trp + Acid 105]	-0.015	
Cn1cc(C[C@@H]2NC(=O)[C@@H](CNC(=O)CCS(=O)(=O)c3ccccc3)NC(=O)[C@H]3CCCN(C3)C(=O)CCSSCCNC2=O)c2ccccc21 [X-Nip-D-Dap-Me-Trp + Acid 114]	0.015	
O=C1CCSSCCNC(=O)[C@H](Cc2c[nH]c3ccccc23)NC(=O)[C@@H](CNC(=O)C2CC2c2ccccc2)NC(=O)C2(CC2)CN1 (stereo partly drawn) [X-Amcp-D-Dap-Trp + Acid 105]	-0.015	
CCOc1ccc(/C=C/C(=O)O)cc1 [Acid 117]		0.028
O=C1CCSSCCNC(=O)[C@H](Cc2c[nH]c3ccccc23)NC(=O)CN(CCNC(=O)c2ccc(Cl)cc2)C(=O)C2(CC2)CN1 [X-Amcp-N-Aeg-Trp + Acid 25]	0.00133	
CC(Oc1cccc(Cl)c1)C(=O)NC[C@@H]1NC(=O)[C@H]2CCCN(C2)C(=O)CCSSCCNC(=O)[C@@H](Cc2c[nH]c3ccccc23)NC1=O (stereo partly drawn) [X-Nip-Dap-D-Trp + Acid 113]	-0.00533	
CC(C)c1ccc(/C=C/C(=O)NC[C@@H]2NC(=O)[C@@H]3CN(CCO3)C(=O)CCSSCCNC(=O)[C@H](Cc3c[nH]c4cc(Cl)ccc34)NC2=O)cc1 [X-Cop-Dap-Cl-Trp + Acid 127]		0.085
O=C1CCSSCCNC(=O)[C@H](Cc2cccc3ccccc23)NC(=O)[C@@H](CNC(=O)c2cccc(Oc3ccccc3)c2)NC(=O)C2(CC2)CN1 [X-Amcp-D-Dap-1-NaI + Acid 111]	0.008	
O=C(/C=C/c1ccc(OCc2ccccc2)cc1)NCCN1CC(=O)N[C@@H](Cc2cccc3ccccc23)C(=O)NCCSSCCC(=O)N2CCO[C@@H](C2)C1=O [X-Cop-N-Aeg-1-NaI + Acid 110]	0.035	
CC(Oc1cccc(Cl)c1)C(=O)NCCN1CC(=O)N[C@@H](Cc2ccc3ccccc3c2)C(=O)NCCSSCCC(=O)N2CCC[C@@H](C2)C1=O (some centres unmarked) [X-Nip-N-Aeg-2-Nal + Acid 113]	0.00133	
O=C1CCSSCCNC(=O)[C@H](Cc2cccc3ccccc23)NC(=O)[C@H](CNC(=O)c2ccc(Cl)cc2)NC(=O)C2(CC2)CN1 [X-Amcp-Dap-1-NaI + Acid 25]	0.008	
O=C(NCC1NC(=O)C2CN(CCO2)C(=O)CCSSCCNC(=O)C(Cc2cccc3ccccc23)NC1=O)c1cccc(Oc2ccccc2)c1 [X-Cop-D-Dap-1-NaI + Acid 111]	0.008	
CN1C(=O)[C@H](CNC(=O)c2ccc(Cl)s2)NC(=O)C2(CC2)CNC(=O)CCSSCCNC(=O)[C@@H]1Cc1c[nH]c2ccccc12 [X-Amcp-Dap-NMe-Trp + Acid 14]	-0.025	
CN1C(=O)[C@@H](CNC(=O)CCS(=O)(=O)c2ccccc2)NC(=O)C2(CC2)CNC(=O)CCSSCCNC(=O)[C@@H]1Cc1c[nH]c2ccccc12 [X-Amcp-D-Dap-NMe-Trp + Acid 114]	0.055	

SMILES	fraction of fluorescent probe displaced [1]	fraction of fluorescent probe displaced [2]
O=C(NC[C@H]1NC(=O)[C@H]2CCCN(C2)C(=O)CCSSCCNC(=O)[C@H](Cc2c[nH]c3ccccc23)NC1=O)c1cccc(Oc2ccccc2)c1 [X-Nip-D-Dap-Trp + Acid 111]	0.008	
O=C1CCSSCCNC(=O)[C@H](Cc2ccc3ccccc3c2)NC(=O)[C@@H](CNC(=O)c2cccc(Oc3ccccc3)c2)NC(=O)C2(CC2)CN1 [X-Amcp-D-Dap-2-Nal + Acid 111]	-0.00533	
CC(Oc1cccc(Cl)c1)C(=O)NC[C@H]1NC(=O)[C@H]2CCCN(C2)C(=O)CCSSCCNC(=O)[C@H](Cc2cccc3ccccc23)NC1=O (stereo partly drawn) [X-Nip-D-Dap-1-NaI + Acid 113]	0.00133	
Cn1cc(C[C@@H]2NC(=O)[C@@H](CNC(=O)c3ccc(Cl)cc3)NC(=O)[C@H]3CCCN(C3)C(=O)CCSSCCNC2=O)c2ccccc21 [X-Nip-D-Dap-Me-Trp + Acid 25]	-0.00533	
O=C(/C=C/c1ccc(OCc2ccccc2)cc1)NCCN1CC(=O)N[C@@H](Cc2c[nH]c3ccccc23)C(=O)NCCSSCCC(=O)NCC2(CC2)C1=O [X-Amcp-N-Aeg-Trp + Acid 110]	0.015	
O=C1CCSSCCNC(=O)C(Cc2c[nH]c3ccccc23)NC(=O)CN(CCNC(=O)C2CC2c2ccccc2)C(=O)C2(CC2)CN1 (centres unmarked) [X-Amcp-N-Aeg-Trp + Acid 105]	-0.015	
O=C(/C=C/c1ccc(OCc2ccccc2)cc1)NC[C@H]1NC(=O)C2(CC2)CNC(=O)CCSSCCNC(=O)[C@@H](Cc2c[nH]c3ccccc23)NC1=O [X-Amcp-D-Dap-D-Trp + Acid 110]	-0.00533	
O=C(CCS(=O)(=O)c1ccccc1)NC[C@H]1NC(=O)C2(CC2)CNC(=O)CCSSCCNC(=O)[C@H](Cc2c[nH]c3cc(Cl)ccc23)NC1=O [X-Amcp-D-Dap-Cl-Trp + Acid 114]	-0.00533	
O=C1CCSSCCNC(=O)[C@H](Cc2cccc3ccccc23)NC(=O)CN(CCNC(=O)c2ccc3ccccc3c2)C(=O)C2(CC2)CN1 [X-Amcp-N-Aeg-1-NaI + Acid 107]	0.011	
O=C1CCSSCCNC(=O)[C@H](Cc2cccc3ccccc23)NC(=O)[C@H](CNC(=O)c2cccc(Oc3ccccc3)c2)NC(=O)C2(CC2)CN1 [X-Amcp-Dap-1-NaI + Acid 111]	0.008	
O=C(/C=C/c1ccc(OCc2ccccc2)cc1)NC[C@@H]1NC(=O)C2(CC2)CNC(=O)CCSSCCNC(=O)[C@@H](Cc2c[nH]c3ccccc23)NC1=O [X-Amcp-Dap-D-Trp + Acid 110]	0.008	
O=C(/C=C/c1ccc(OCc2ccccc2)cc1)NC[C@H]1NC(=O)[C@@H]2CN(CCO2)C(=O)CCSSCCNC(=O)[C@H](Cc2cccc3ccccc23)NC1=O [X-Cop-D-Dap-1-NaI + Acid 110]	0.048	
CN1C(=O)[C@H](CNC(=O)c2ccc(Cl)cc2)NC(=O)C2(CC2)CNC(=O)CCSSCCNC(=O)[C@@H]1Cc1c[nH]c2ccccc12 [X-Amcp-Dap-NMe-Trp + Acid 25]	0.00133	
O=C1CCSSCCNC(=O)[C@@H](Cc2c[nH]c3ccccc23)NC(=O)[C@H](CNC(=O)c2ccc3ccccc3c2)NC(=O)C2(CC2)CN1 [X-Amcp-Dap-D-Trp + Acid 107]	0.050	
CC(Oc1cccc(Cl)c1)C(=O)NCCN1CC(=O)N[C@@H](Cc2c[nH]c3ccccc23)C(=O)NCCSSCCC(=O)NCC2(CC2)C1=O (some centres unmarked) [X-Amcp-N-Aeg-Trp + Acid 113]	0.035	
O=C(/C=C/c1ccc(OCc2ccccc2)cc1)NCCN1CC(=O)N[C@H](Cc2c[nH]c3ccccc23)C(=O)NCCSSCCC(=O)NCC2(CC2)C1=O [X-Amcp-N-Aeg-D-Trp + Acid 110]	0.015	
O=C1CCSSCCNC(=O)[C@@H](Cc2c[nH]c3ccccc23)NC(=O)[C@@H](CNC(=O)c2ccc3ccccc3c2)NC(=O)C2(CC2)CN1 [X-Amcp-D-Dap-D-Trp + Acid 107]	0.031	
O=C1CCSSCCNC(=O)[C@H](Cc2ccc3ccccc3c2)NC(=O)CN(CCNC(=O)c2ccc(Cl)s2)C(=O)C2(CC2)CN1 [X-Amcp-N-Aeg-2-Nal + Acid 14]	-0.032	
O=C(NC[C@@H]1NC(=O)[C@@H]2CN(CCO2)C(=O)CCSSCCNC(=O)[C@H](Cc2ccc3ccccc3c2)NC1=O)c1ccc(Cl)cc1 [X-Cop-Dap-2-Nal + Acid 25]	0.041	
O=C(NC[C@@H]1NC(=O)[C@H]2CCCN(C2)C(=O)CCSSCCNC(=O)[C@H](Cc2c[nH]c3cc(Cl)ccc23)NC1=O)c1cccc(Oc2ccccc2)c1 [X-Nip-Dap-Cl-Trp + Acid 111]	0.075	
